Assay results from US9591867B2, “Compositions of abscisic acid for animal health” (Valent BioSciences Corporation, priority 2010, dated 2017).

Columns and labels:
[1] = tested on: rats; assay: Two generation reproduction toxicity study, S-ABA continuously in the diet; assay type: in vivo; details: for Mean Live Offspring Born: per litter; for SPLEEN WEIGHT, % DIFFERENCE: MALES
Procedure: (§1) Tests were conducted with (S)-(+)-abscisic acid in accordance with standard guidelines and procedures as evidenced by EPA Subchronic Toxicity Test Guidelines: 870.3050—Repeated Dose 28-Day Oral Toxicity Study in Rodents (July 2000); 870.3100—90-Day Oral Toxicity in Rodents (August 1998); 870.3650—Combined Repeated Dose Toxicity Study with the Reproduction/Developmental Toxicity Screening Test (July 2000); and 870.3200—21/28-Day Dermal Toxicity (August 1998), as well as Organization for Economic Co-operation and Development (OECD) Guidelines for the Testing of Chemicals including: Test No. 407: Repeated Dose 28-day Oral Toxicity Study in Rodents; Test No. 408: Repeated Dose 90-Day Oral Toxicity Study in Rodents; Test No. 416: Two-Generation Reproduction Toxicity; and Test No. 410: Repeated Dose Dermal Toxicity: 21/28-day Study.
This study was conducted to determine the potential adverse effects of the test substance on reproduction in a 2-generation study. This included determining the effects of the test substance on male and female reproductive processes, including gonadal function, estrous cyclicity, mating behavior, conception, gestation, parturition, lactation, weaning, and on growth and development of the offspring. A minimum of 1 litter was produced in each generation.
Three groups of male and female were offered ABA, continuously in the diet for at least 70 consecutive days prior to mating. Target tests substance concentrations were 10,000, 15,000, and 20,000 ppm for the F0 and F1 generations. A concurrent control group of 30 rats/sex was offered the basal diet continuously throughout the study. F0 animals were approximately 7 weeks of age at the initiation of test diet administration. The test diet was administered to the offspring selected to become the F1 generation following weaning. The F0 and F1 males continued to receive the test substance throughout mating and continuing through the day prior to euthanasia. The F0 and F1 females continued to receive the test substance throughout mating, gestation, and lactation, and through the day of euthanasia. For both generations (F1 and F2), 8 pups per litter (4 per sex, when possible) were selected to reduce the variability among the litters. Offspring (30/sex/group, if possible) from the pairing of the F0 animals were selected to constitute the F1 generation. F0 males and females were exposed for 127-130 consecutive days and F1 males and females were exposed for 178-186 consecutive days.
All animals were observed twice daily for appearance and behavior. Clinical observations, body weights, and food consumption were recorded at appropriate intervals for males throughout the study and for females prior to mating and during gestation and lactation. All F0 and F1 females were allowed to deliver and rear their pups until weaning on lactation day 21. Clinical observations, body weights, and sexes for F1 and F2 pups were recorded at appropriate intervals. Nonselected F1 pups and all surviving F2 pups were necropsied. Selected organs were weighed from 1 pup/sex/litter from F1 and F2 pups that wee necropsied. Each surviving F0 and F1 parental animal received a complete detailed gross necropsy following the completion of weaning of the F1 and F2 pups, respectively; selected organs were weighed. Spermatogenic endpoints were recorded for all F0 and F1 males, and ovarian primordial follicle counts were recorded for all F0 and F1 females in the control and high-exposure groups and all F0 and F1 females suspected of reduced fertility. Designated tissues from all F0 and F1 parental animals were examined microscopically.

[2] = Fetal data at scheduled necropsy (mg/kg/day dose groups); assay type: in vivo
Procedure: as §1

[3] = 10,000 ppm in diet, rat offspring
[4] = 20,000 ppm in diet, rat offspring

CC1=CC(=O)CC(C)(C)[C@@]1(O)/C=C/C(C)=C\C(=O)O [S-ABA, (S)-(+)-abscisic acid]
Offspring FOUND DEAD ([1]; 10,000 ppm in diet): 4
OFFSPRING WEIGHT, MEAN ([1]; 10,000 ppm in diet, FEMALE, postnatal day 1): 6.6 grams
OFFSPRING WEIGHT, MEAN ([1]; 10,000 ppm in diet, FEMALE, postnatal day 4): 9.1 grams
OFFSPRING WEIGHT, MEAN ([1]; 10,000 ppm in diet, MALE, postnatal day 1): 7.1 grams
OFFSPRING WEIGHT, MEAN ([1]; 10,000 ppm in diet, MALE, postnatal day 4): 9.7 grams
Mean Live Offspring Born ([1]; 10,000 ppm in diet): 12.3
POSTNATAL SURVIVAL, POSTNATAL DAY 0-1, MEAN [1, 3]: 100.0 % PER LITTER
POSTNATAL SURVIVAL, POSTNATAL DAY 7-14, MEAN [1, 3]: 100.0 % PER LITTER
POSTNATAL SURVIVAL, POSTNATAL DAY 14-21, MEAN [1, 3]: 100.0 % PER LITTER
Offspring FOUND DEAD ([1]; 15,000 ppm in diet): 15
OFFSPRING WEIGHT, MEAN ([1]; 15,000 ppm in diet, FEMALE, postnatal day 1): 6.6 grams
OFFSPRING WEIGHT, MEAN ([1]; 15,000 ppm in diet, FEMALE, postnatal day 4): 8.8 grams
OFFSPRING WEIGHT, MEAN ([1]; 15,000 ppm in diet, FEMALE, postnatal day 7): 14.0 grams
OFFSPRING WEIGHT, MEAN ([1]; 15,000 ppm in diet, MALE, postnatal day 1): 6.9 grams
OFFSPRING WEIGHT, MEAN ([1]; 15,000 ppm in diet, MALE, postnatal day 4): 9.3 grams
Mean Live Offspring Born ([1]; 15,000 ppm in diet): 13.1
POSTNATAL SURVIVAL, POSTNATAL DAY 14-21, MEAN ([1]; 15,000 ppm in diet, rat offspring): 100.0 % PER LITTER
Offspring FOUND DEAD ([1]; 20,000 ppm in diet): 11
OFFSPRING WEIGHT, MEAN ([1]; 20,000 ppm in diet, FEMALE, postnatal day 1): 6.6 grams
OFFSPRING WEIGHT, MEAN ([1]; 20,000 ppm in diet, FEMALE, postnatal day 4): 8.8 grams
OFFSPRING WEIGHT, MEAN ([1]; 20,000 ppm in diet, MALE, postnatal day 1): 7.0 grams
OFFSPRING WEIGHT, MEAN ([1]; 20,000 ppm in diet, MALE, postnatal day 4): 9.3 grams
Mean Live Offspring Born ([1]; 20,000 ppm in diet): 12.3
POSTNATAL SURVIVAL, POSTNATAL DAY 4 (POST-SELECT)-21, MEAN [1, 4]: 98.0 % PER LITTER
POSTNATAL SURVIVAL, POSTNATAL DAY 14-21, MEAN [1, 4]: 100.0 % PER LITTER
SPLEEN WEIGHT, % DIFFERENCE ([1]; 10,000 PPM vs 0 PPM): −2.0%
SPLEEN WEIGHT, % DIFFERENCE ([1]; 15,000 PPM vs 0 PPM): −3.0%
SPLEEN WEIGHT, % DIFFERENCE ([1]; 20,000 PPM vs 0 PPM): −8.9%
offspring mortality (in words) ([1]; conclusion from Table 3): decreases
number of live offspring per litter (in words) ([1]; conclusion from Table 4): increases
follicle size (in words) ([1]; conclusion from Table 6): increase
postnatal offspring survival rates (in words) ([1]; rats, conclusion from Table 1): increases
offspring weight gain (in words) ([1]; rats, conclusion from Table 2): increases
spleen weight (in words) ([1]; rats, males and second generation pups): spleen weight reduction
fetus numbers at necropsy (in words) ([2]; conclusion from Table 5): increase
FETAL DATA AT SCHEDULED NECROPSY, SEX FEMALE, MEAN ([2]; group 2, 500 MG/KG/DAY): 7.2
FETAL DATA AT SCHEDULED NECROPSY, SEX FEMALE, N (number of fetuses) ([2]; group 2, 500 MG/KG/DAY): 181
FETAL DATA AT SCHEDULED NECROPSY, SEX MALE, MEAN ([2]; group 2, 500 MG/KG/DAY): 7.5
FETAL DATA AT SCHEDULED NECROPSY, SEX MALE, N (number of fetuses) ([2]; group 2, 500 MG/KG/DAY): 187
FETAL DATA AT SCHEDULED NECROPSY, VIABLE FETUSES, MEAN ([2]; group 2, 500 MG/KG/DAY): 14.7
FETAL DATA AT SCHEDULED NECROPSY, SEX FEMALE, MEAN ([2]; group 3, 750 MG/KG/DAY): 6.6
FETAL DATA AT SCHEDULED NECROPSY, SEX FEMALE, N (number of fetuses) ([2]; group 3, 750 MG/KG/DAY): 166
FETAL DATA AT SCHEDULED NECROPSY, SEX MALE, MEAN ([2]; group 3, 750 MG/KG/DAY): 7.5
FETAL DATA AT SCHEDULED NECROPSY, SEX MALE, N (number of fetuses) ([2]; group 3, 750 MG/KG/DAY): 188
FETAL DATA AT SCHEDULED NECROPSY, VIABLE FETUSES, MEAN ([2]; group 3, 750 MG/KG/DAY): 14.2
FETAL DATA AT SCHEDULED NECROPSY, SEX FEMALE, MEAN ([2]; group 4, 1,000 MG/KG/DAY): 8.3
FETAL DATA AT SCHEDULED NECROPSY, SEX FEMALE, N (number of fetuses) ([2]; group 4, 1,000 MG/KG/DAY): 208
FETAL DATA AT SCHEDULED NECROPSY, SEX MALE, MEAN ([2]; group 4, 1,000 MG/KG/DAY): 6.8
FETAL DATA AT SCHEDULED NECROPSY, SEX MALE, N (number of fetuses) ([2]; group 4, 1,000 MG/KG/DAY): 170
FETAL DATA AT SCHEDULED NECROPSY, VIABLE FETUSES, MEAN ([2]; group 4, 1,000 MG/KG/DAY): 15.1
